Test [1] relates to morphine-exposed mouse pups. Kind of test: Neonatal opioid withdrawal syndrome (NOWS): naloxone-precipitated somatic signs in morphine-exposed mouse pups. It counts as in vivo. The note with it: D-CYSee 30 mg/kg s.c. given prior to naloxone 1.0 mg/kg. The protocol: FIG. 2 illustrates a schematic timeline of an assay of neonatal morphine exposure of female mice for determining neonatal opioid withdrawal syndrome (NOWS). Female mice are implanted with osmotic mini-pumps containing 20 mg/kg/day morphine sulfate and mated. Offspring are injected twice daily with 10 mg/kg morphine for 14 days.
FIG. 4 illustrates a graph showing D-CYSee modulates NOWS. […] D-CYSee (30 mg/kg s.c.) given prior to naloxone (1.0 mg/kg) reduces all somatic signs of withdrawal except for jumping behavior, which is enhanced.

The test system of test [2] is morphine dependent rats. The experiment in a line: Naloxone-precipitated withdrawal responses in morphine dependent rats. Format: in vivo, rat. As for the experimental part:
Rats received a depot subcutaneous injection of morphine (150 mg/kg) with or without continuous infusion of D-CYSee (20 μmol/kg/hour, IV) and one day later the rats received an intraperitoneal injection of naloxone HCl (1.5 mg/kg) to elicit withdrawal responses.

[3] abbreviates: rats, D-CYSee 20 μmol/kg/hour IV, naloxone HCl 1.5 mg/kg i.p.

The values below come from patent US20250009706A1, “COMPOSITIONS AND METHODS FOR TREATING OPIOID DEPENDENCE AND WITHDRAWAL” (CASE WESTERN RESERVE UNIVERSITY, priority 2021, published 2025).

With `CCOC(=O)[C@H](N)CS` [D-CYSee, D-cysteine ethyl ester], in test [1], the body tremors result is on record as “reduces”, the “jumps (jumping behavior)” value is listed as “enhanced”, the paw tremors entry is “reduces” and the wall climbs entry is listed as “reduces”. The withdrawal responses result in test [2] (morphine 150 mg/kg depot s.c., D-CYSee 20 μmol/kg/hour IV continuous infusion, naloxone HCl 1.5 mg/kg i.p. one day later) is on record as “markedly diminishes”. In test [2] (setting [3]), the “change in mean arterial blood pressure” value was “attenuated”, the circling behavior entry is recorded as “attenuated”, the episodes of apneas entry is “attenuated” and the “episodes of fore-paw licking” value is reported as “attenuated”. Moreover, in test [2] (setting [3]), the episodes of sneezing entry is “attenuated”, the jumping behavior result is on record as “attenuated” and the rearing behavior entry is reported as “attenuated”.
